Assay results published in patent US20240425568A1, “COMBINATION THERAPIES FOR HIV INFECTIONS AND USES THEREOF” (VIIV HEALTHCARE COMPANY, priority 2021, published 2024).
Read-outs that look alike come from different tables or passages of the source.

Columns and labels:
[1] = system: HIV infected CD4+ T cells; test: ADCC assay: NK-directed killing of HIV infected CD4+ T cells; assay type: cell-based, human (infected with HIV-1 lab strain IIIB); details: for NK-directed killing of HIV infected cells mediated by CD4 binding site bnAbs (ADCC): temsavir 50 nM-0.08 nM for 16-24 hours, antibodies 5 ug/mL, Raltegravir in medium
Procedure: Isolation and preparation of target and effector cells: Peripheral blood mononuclear cells (PBMCs) were obtained by continuous-flow leukapheresis from healthy donors, isolated by ficoll-hypaque density gradient centrifugation and cryopreserved in the vapor phase of liquid nitrogen. PBMCs were rapidly thawed to room temperature in a 37° C. water bath and resuspended in RPMI 1640 media supplemented with 10% fetal calf serum. For the target cells, CD4+T lymphocytes were purified using immunomagnetic negative selection beads as per the manufacturer's instructions (StemCell Technologies). The cells were activated with phytohemagglutinin-P (Sigma; PHA-P; 5 μg/mL) for 72 hours at 37° C., 5% CO2 and then maintained under the same incubation conditions in RPMI 1640 medium supplemented with 10% fetal calf serum plus 50 U/mL recombinant IL-2. Natural Killer (NK) effector cells were purified from autologous PBMCs using immunomagnetic negative selection beads as per the manufacturer's instructions (StemCell Technologies). The cells were maintained in RPMI 1640 medium supplemented with 10% fetal calf serum and incubated at 37° C., 5% CO2 for 24 hr prior to ADCC assay.
Infection of target cells: HIV-1 lab strain IIIB was used to infect the activated CD4+T lymphocytes by spin infection at 1200×g for 1.5 hours in 24-well plates at 25° C. in the presence of 25 μg/mL DEAE-Dextran. The infected cells were collected, washed and resuspended in RPMI 1640 medium supplemented with 10% fetal calf serum plus 50 U/mL recombinant IL-2 and incubated at 37° C., 5% CO2 for 3 days until infection rates reached above 20%.
ADCC assay: HIV infected CD4^+ T cells (targets) were incubated with cell proliferation dye as per the manufacturer's instructions (eFluor670; eBioscience) and plated in 96-well U-bottom plates. Temsavir was dissolved in DMSO and diluted into RPMI 1640 medium supplemented with 10% fetal calf and serially titrated in the same medium in 5-fold increments for a dose range of 50 nM-0.08 nM. […]
The cells were then stained intracellularly for HIV-1 p24, using the Cytofix/Cytoperm Fixation/Permeabilization Kit (BD Biosciences) with subsequent addition of anti-p24 mAb (FITC anti-p24, clone KC57; Beckman Coulter/Immunotech; 1:200 final concentration) for 20-30 minutes at room temperature. […] The percentage of specific killing was calculated with the following formula: (% of p24^+ cells in Targets plus Effectors)−(% of p24^+ cells in Targets plus Effectors plus Abs)/(% of p24^+ cells in Targets alone without antibody or temsavir) by gating on live target cells.

[2] = biological target: T1, cell surface expressed HIV-1 envelope (Human immunodeficiency virus type 1 group M subtype B, UniProt P04578); assay type: cell-based, HIV-1 lab strain HxB2; details: for overall percentage of cells that contained bound bnAbs: 0.5 uM temsavir compared to DMSO only treated cells, FIG. 2; for binding of bnAb to the cell surface of CD4+/p24+ cells (mean fluorescent intensity, MFI): HIV infected cells treated with 0.5 uM temsavir for 24 hr, compared to DMSO only treated cells, bnAb 50 ug/mL to 0.01 ug/mL, FIG. 1
T1 construct: cell surface expressed HIV-1 envelope from a productive infection of human CD4^+ T cells; endogenous in cells; host or cells: primary human CD4+ T cells (from healthy-donor PBMCs) productively infected with HIV-1 HxB2 virus
Procedure: Preparation and HIV-1 infection of target cells: Peripheral blood mononuclear cells (PBMCs) were obtained by continuous-flow leukapheresis from healthy donors, isolated by ficoll-hypaque density gradient centrifugation and cryopreserved in the vapor phase of liquid nitrogen. PBMCs were rapidly thawed to room temperature in a 37° C. water bath and cultured in assay medium (RPMI 1640 media supplemented with 10% fetal calf serum plus 30 U/mL recombinant IL-2) containing 2 ug/mL phytohemagglutinin-P (Sigma) for three days in a humidified incubator at 37° C., 5% CO2. CD4^+ T cells were isolated by negative selection (Stemcell Technologies), washed twice and resuspended with assay medium at a final density of 1-2×10^6 cells/mL and incubated at 37° C., 5% CO2 overnight. Cells were centrifuged at 500×g for 10 minutes, resuspended with assay medium at 5×10^6 cell/mL and 200 uL (1×10^6 total cells) were distributed to 24-well tissue culture treated plates. An HIV-1 lab strain, HxB2 virus, previously propagated in human PBMC cells, was diluted with assay medium containing 50 ug/mL DEAE-dextran and 200 uL was added to the cells in the 24-well plates. The plates were centrifuged at 1,200×g for 1.5 hours and the infected cells were collected and pooled in a 50 ml conical tube. The infected cells were washed twice and resuspended in assay medium to a final density of 1-2×10^6 cells/mL and incubated at 37° C., 5% CO2 for three days.
Treatment of HIV-infected target cells with temsavir and N6 bnAbs: HIV infected cells were centrifuged at 500×g for 10 minutes, resuspended with assay medium at 3×10^6 cell/mL and 50 uL (150,000 total cells) were distributed to 96-well, U-bottom tissue-culture treated plates. […] The antibodies were eluted and diluted in buffer consisting of 150 mM Arginine, 50 mM Sodium acetate, pH 5.5, 150 mM NaCl) were serially titrated in assay medium and added to the temsavir-treated cells for a final concentration range of 50 ug/mL to 0.01 ug/mL. The plates were incubated at 37° C., 5% CO2 for 30 minutes.
Flow cytometry: The assay plates were removed from the incubator and the cells were pelleted by centrifugation at 500×g for 2 minutes at 25° C. The cells were washed twice by mixing with 200 μL of ice cold wash buffer (phosphate buffered saline containing 2% fetal calf serum) with centrifugation at 500×g for 2 minutes at 25° C. for each wash cycle. […] The stained cells were washed twice with wash buffer as indicated above, acquired on a Fortessa cytometer (BD Biosciences) and the data were analyzed by mean fluorescent intensity (MFI) using FlowJo v10.8 software (Tree Star).

Row | Compound | cell death of HIV infected primary cells in the absence of effector cells ([1]; effector cells eliminated from the assay, FIG. 4) | NK-directed killing of HIV infected cells mediated by CD4 binding site bnAbs (ADCC) ([1]; NK effector-to-target ratio 3:1, 24 hours, FIG. 3) | NK-directed killing of HIV infected cells mediated by CD4 binding site bnAbs (ADCC) ([1]; NK effector-to-target ratio 3:1, 24 hours, FIG. 3, listed as Temsavir) | overall percentage of cells that contained bound bnAbs [2] | overall percentage of cells that contained bound bnAbs ([2]; listed as Temsavir) | binding of bnAb to the cell surface of CD4+/p24+ cells (mean fluorescent intensity, MFI) [2] | magnitude of killing (maximum), percentage of specific killing ([1]; with temsavir titration 50 nM-0.08 nM, antibody 5 ug/mL, NK effector-to-target ratio 3:1, 24 hours, FIG. 3) [%]
1 | COc1cnc(-n2cnc(C)n2)c2[nH]cc(C(=O)C(=O)N3CCN(C(=O)c4ccccc4)CC3)c12 [temsavir, 1-(4-benzoylpiperazin-1-yl)-2-[4-methoxy-7-(3-methyl-1,2,4-triazol-1-yl)-1H-pyrrolo[2,3-c]pyridin-3-yl]ethane-1,2-dione] | does not lead to cell death | Dose dependent temsavir enhancement | enhances | significant increase | enhancement | enhancement | 
2 | N6-LAGA: Fc binding-reduced N6 antibody, constant domain comprising L235A and G237A mutations; HC SEQ ID NO: 13 |  |  |  |  |  | substantial increase | 25
